Laboratory results published in patent publication US20080160001A1, “Antihypercholesterolemic Formulation with Less Side-Effects” (PFICKER PHARMACEUTICALS LTD., priority 2005, published 2008).

Key:
[1] = in vivo; cited from earlier work
patients [2] = conditions: patient with abnormal heart function, 40 mg alone, within 6 months, from 0.70; cited from earlier work
[3] = cited from earlier work
patients [4] = conditions: cited from earlier work
[5] = system: patients (clinical cases); experiment: Summary of clinical cases; conditions: patient, simvastatin 20 mg; for blood ammonia: before test 72; for cholesterol in the blood: before test 249; for concentration of cholesterol in the blood: before 249
[6] = Experiment on stability of simvastatin; type: physicochemical; conditions: under pH of 5-7

Compound: silymarin
- amount at which no toxic and side effect is found [1]: 200 mg/kg body weight/day

Compound: O=C(O)CCCCC1CCSS1 (centres unmarked) [lipoic acid]
- amount at which no toxic and side effect is found [1]: 300 mg/day

Compound: C[N+](C)(C)C[C@H](O)CC(=O)[O-] [L-Carnitine]
- amount at which no toxic and side effect is found [1]: 500 mg/kg body weight/day

Compound: CC[C@H](C)C(=O)O[C@H]1C[C@@H](C)C=C2C=C[C@H](C)[C@H](CC[C@@H]3C[C@@H](O)CC(=O)O3)[C@H]21 [lovastatin]
- ejection fraction of heart (patients [2]): 0.54

Compound: COC1=C(OC)C(=O)C(C/C=C(\C)CC/C=C(\C)CC/C=C(\C)CC/C=C(\C)CC/C=C(\C)CC/C=C(\C)CC/C=C(\C)CC/C=C(\C)CC/C=C(\C)CCC=C(C)C)=C(C)C1=O [coenzyme Q10]
- solubility in an aqueous medium [3]: very low
- amount at which no toxic and side effect is found [1]: 100 mg/kg body weight/day
- outcome of patients close to death due to heart failure (patients [4]; 19 patients): becoming better
- patients with three-year persistence (patients [4]; added to traditional therapy for heart diseases, traditional therapy 25%): 75%

Compound: CCC(C)(C)C(=O)O[C@H]1C[C@@H](C)C=C2C=C[C@H](C)[C@H](CC[C@@H]3C[C@@H](O)CC(=O)O3)[C@H]21 [simvastatin]
- ejection fraction ([5]; 5 weeks, before test 0.59): 0.62
- blood ammonia ([5]; 5 weeks): 84 µg/L
- cholesterol in the blood ([5]; 5 weeks): 202 mg/L
- ejection fraction ([5]; 10 weeks, before test 0.59): 0.60
- blood ammonia ([5]; 10 weeks): 69 µg/L
- cholesterol in the blood ([5]; 10 weeks): 198 mg/L
- ejection fraction ([5]; 15 weeks, before test 0.59): 0.63
- blood ammonia ([5]; 15 weeks): 77 µg/L
- cholesterol in the blood ([5]; 15 weeks): 194 mg/L
- ejection fraction ([5]; 20 weeks, before test 0.59): 0.58
- blood ammonia ([5]; 20 weeks): 108 µg/L
- cholesterol in the blood ([5]; 20 weeks): 197 mg/L
- ejection fraction ([5]; 25 weeks, before test 0.59): 0.62
- blood ammonia ([5]; 25 weeks): 89 µg/L
- cholesterol in the blood ([5]; 25 weeks): 192 mg/L
- ejection fraction ([5]; 30 weeks, before test 0.59): 0.61
- blood ammonia ([5]; 30 weeks): 93 µg/L
- cholesterol in the blood ([5]; 30 weeks): 194 mg/L
- ejection fraction ([5]; 35 weeks, before test 0.59): 0.61
- blood ammonia ([5]; 35 weeks): 162 µg/L
- cholesterol in the blood ([5]; 35 weeks): 189 mg/L
- ejection fraction ([5]; after 6 months, before 0.59): 0.61
- concentration of blood ammonia ([5]; after 6 months, before 72): 162 ng/mL
- concentration of cholesterol in the blood ([5]; after 6 months): 189 mg/L
- concentration of cholesterol in the blood ([5]; after one month): 202 mg/L
- stability of simvastatin solid [6]: good stability

Compound: Vitamin E
- amount at which no toxic and side effect is found [1]: 500 mg/day
